Earlier results, collected in patent US9655910B2, “Compositions and methods for treating addiction” (BODYBIO INC., priority 2014, dated 2017).

Assays:
CB1 cannabinoid receptor = CB1 cannabinoid receptor (Rattus norvegicus, UniProt P20272)
CB2 receptor = CB2 receptor (Homo sapiens, UniProt P34972); conditions: compared with CB1
Chain of CB2 receptor (P34972 whole entry): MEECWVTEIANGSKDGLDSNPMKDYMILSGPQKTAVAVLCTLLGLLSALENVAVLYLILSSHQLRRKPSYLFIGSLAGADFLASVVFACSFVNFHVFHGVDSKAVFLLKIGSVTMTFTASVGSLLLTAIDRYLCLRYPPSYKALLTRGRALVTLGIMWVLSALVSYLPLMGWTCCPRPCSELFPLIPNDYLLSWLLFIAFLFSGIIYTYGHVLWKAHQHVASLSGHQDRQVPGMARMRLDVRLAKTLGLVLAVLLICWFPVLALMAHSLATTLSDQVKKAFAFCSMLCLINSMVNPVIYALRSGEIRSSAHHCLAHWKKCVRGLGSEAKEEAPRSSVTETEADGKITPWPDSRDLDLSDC

Chain of CB1 cannabinoid receptor (P20272 whole entry): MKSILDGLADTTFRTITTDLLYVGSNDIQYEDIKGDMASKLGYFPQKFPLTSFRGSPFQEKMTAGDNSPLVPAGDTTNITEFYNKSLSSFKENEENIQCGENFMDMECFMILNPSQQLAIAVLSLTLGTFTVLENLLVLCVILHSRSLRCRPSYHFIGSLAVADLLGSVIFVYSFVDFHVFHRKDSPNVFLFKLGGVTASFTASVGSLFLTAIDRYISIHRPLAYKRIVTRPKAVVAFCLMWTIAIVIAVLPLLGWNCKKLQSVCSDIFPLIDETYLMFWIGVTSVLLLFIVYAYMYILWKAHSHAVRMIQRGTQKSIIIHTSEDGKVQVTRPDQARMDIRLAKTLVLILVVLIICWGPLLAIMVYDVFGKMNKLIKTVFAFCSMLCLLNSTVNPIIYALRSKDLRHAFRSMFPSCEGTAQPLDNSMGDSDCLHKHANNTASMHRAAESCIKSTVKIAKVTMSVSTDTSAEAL

Compound: CCCCCC=CCC=CCC=CCC=CCCCCOC(CO)CO [Noladin ether, 2-arachidonyl glyceryl ether]
- effects caused in mice (mice): sedation, hypothermia, intestinal immobility, and mild antinociception
- Ki (CB1 cannabinoid receptor): 21.2 nM
- binding to the CB2 receptor (CB2 receptor): only weakly
